Assay results taken from patent publication US20120321694A1, “COMPOSITIONS AND USES” (priority 2010, published 2012).
Where no end group is shown, it is not given here. The star is where a group is joined. Pam3Cys = N-terminal lipid (lipidation), CCCCCCCCCCCCCCCC(=O)N[C@@H](CSCC(COC(=O)CCCCCCCCCCCCCCC)OC(=O)CCCCCCCCCCCCCCC)C(=O)*

Legend:
BV2 microglia cells = experiment: In vitro phagocytosis of Aβ1-42 in BV2 cells (Western blot); type: cell-based, mouse; conditions: 5 μg/mL cytochalasin D, 30 min before; FIG. 16
Description: For total Aβ detection, 10-30 μg of cell extracts were separated on a precast 10-20% SDS polyacrylamide Tris-Tricine gel (Bio-Rad, Canada). Separated proteins were then transferred onto polyvinylidene fluoride (PVDF) membranes (PerkinElmer, Canada). Membrane were incubated in DPBS (Gibco, USA) at 90° C. for 10 min. […] Films were digitalized using a HP Scanjet 4370 (HP) and signal intensity was measured using ImageJ (version 1.44p, NIH).
BV2 microglia cells were seeded at 900000 cells/60 mm cell culture Petri dish 24 hours prior the experiment, and cultured in complete media (Dulbecco's Modified Eagle Medium (DMEM, Gibco, USA) supplemented with 10% fetal bovine serum (FBS) (Gibco, USA), 1 mM sodium pyruvate (Gibco, USA) and 100 U/mL of penicillin and 100 μg/mL of streptomycin (Gibco, USA)). […] Protein concentration in supernatant or cell extracts was then measured using the Bradford method (Coomassie Plus, The better Bradford assay reagent, Thermoscientific, USA) accordingly to the manufacturer recommendation and equal amount of protein were then analyzed by Western blot. […]

TASTPM mice [1] = experiment: Survival of TASTPM mice; type: in vivo; conditions: weekly injections, followed for 112 days; PBS 13 out 25; FIG. 31
From the text: The usage of the TLR2 agonist, i.e. Pam3CysLip Aβ1-6 peptide, improves the survival rate of TASTPM mouse model. 23 out of 25 mice survived after weekly injections of Pam3CysLip Aβ1-6 peptide compared to PBS injected animals in which only 13 out 25 TASTPM mice survived (followed for 112 days).

Aβ42 = experiment: Anti-Aβ42 immunogenicity in amyloid deposition mouse model; type: in vivo, TASTPM mice; conditions: 12 injections, intramuscular route; FIG. 29
TASTPM mice [2] = experiment: T-water maze in TASTPM mice; type: in vivo; conditions: 12 weekly i.m. injections; vs PBS; FIG. 30
Description: To determine whether a TLR2 agonist will improve the cognitive impairment in TASTPM mice, the Pam3CysLip adjuvant fused to the Aβ1-6 peptide was injected 12 times at weekly basis using the intramuscular route and the memory was assessed using the T-water maze test. […] TASTPM mice have received one a week for a period of 12 weeks the following treatment: PBS or mice have received once a week for a period of 12 weeks the following treatment: PBS or of Pam3CysLip Aβ1-6 peptide.

Compound: C=C1[C@@H](C)[C@H]2[C@H](Cc3ccccc3)NC(=O)[C@]23[C@H](OC(C)=O)/C=C/[C@@](C)(O)C(=O)[C@@H](C)C/C=C/[C@H]3[C@@H]1O [cytochalasin D]
- effect on 2E7-stimulated cellular uptake of Aβ1-42 (BV2 microglia cells): further inhibited

Compound: Pam3Cys—SQ EPAAPAAEAT PAAEAPDAEFRH (Pam3Cys-SQEPAAPAAEATPAAEAPDAEFRH) [Pam3CysLip Aβ1-6 peptide]
- mice survived (TASTPM mice [1]): 23 out of 25
- anti Aβ42 specific immunogenicity (Aβ42): High and specific anti Aβ42 specific immunogenicity
- T-water maze, right-left discrimination tests (working memory) (TASTPM mice [2]): trend of improvement
